Experimental data as given in article PMC9697930 (International Journal of Molecular Sciences, 2022).
Like-named read-outs stand apart in the source and are kept apart here.

Assays:
A431-parent = assay: MTT proliferation / drug combination assay; format: cell-based; settings: Homo sapiens, 48 h
Method: (§1) The viability MTT assay was employed in several experimental sets, including induction studies, comparative viability assays, and drug combinations. First, 1.3 × 10^4 (MDCKII sublines), 1.2 × 10^4 (A431 sublines), 1.5 × 10^4 (MCF-7), and 1.0 × 10^4 (primary NSCLC explants) cells were seeded in 96-well plates. After seeding, cells were left to refresh in incubator for 24 h. Secondly, the medium was removed, and the serial dilutions of the drugs or drug combinations were added to the cells. Next to these variants, a medium with 40% DMSO and vehicle-containing media were tested as nonviable and unaffected viability controls, respectively. After an additional 48 h of incubation, the cells were washed with 1 × PBS and then treated with 1 mg/mL MTT solution in Opti-MEM. Subsequently, cells were incubated for 60 min under standard conditions. After MTT treatment, generated formazan crystals were solubilized with DMSO for 10 min. Wavelengths of 570 nm (formazan) and 690 nm (background) were used for absorbance measurements using a microplate reader Infinite 200 Pro NanoQuant (Tecan, Männedorf, Switzerland).
(§2) In vitro cell lines (MDCKII and A431) and primary NSCLC explants were seeded (see densities above) in 96-well plates and incubated for 24 h. […] Combined cells were incubated with the tested compounds for 48 h, and subsequently, MTT assay was performed to assess cell viability as described above. Besides IC50-shift analysis, CompuSyn 3.0.1 software (ComboSyn Inc., Paramus, NJ, USA) was used for the additional analysis of obtained data. This software works with the algorithms of the combination index (CI) method of Chou–Talalay, which is frequently used for the accurate quantification of drug combinations’ outcomes. According to the CI method principle, the combination effects were separated into three categories, including synergistic (CI < 0.9), additive (CI between 0.9–1.1), or antagonistic (CI > 1.1) ones.

MDCKII-parent = assay: MTT proliferation / drug combination assay; format: cell-based, Canine; settings: Canis lupus familiaris, 48 h
Method: as §1, §2

A431-ABCG2 = assay: MTT proliferation / drug combination assay; format: cell-based; settings: Homo sapiens, 48 h; read-out: IC50
Method: as §1, §2

[1] = MTT proliferation / drug combination assay; format: cell-based, Canine; settings: dog, MDCKII-ABCG2 cells; read-out: IC50
Method: as §1, §2

SMILES | IC50 (A431-parent) [nM] | IC50 (MDCKII-parent) [nM] | IC50 (A431-parent; read-out: IC50) [nM] | IC50 (A431-ABCG2) [nM] | IC50 (MDCKII-parent; read-out: IC50) [nM] | IC50 at 48 h [1] [nM]
COc1cccc2c1C(=O)c1c(O)c3c(c(O)c1C2=O)C[C@@](O)(C(C)=O)C[C@@H]3O[C@H]1C[C@H](N)[C@H](O)[C@H](C)O1 [daunorubicin] | 1110 | 1000 | – | – | – | –
O=C1c2c(O)ccc(O)c2C(=O)c2c(NCCNCCO)ccc(NCCNCCO)c21 [mitoxantrone] | – | – | 880 | 10000 | 1480 | 12100
